According to patent US6503524B1, “Delivery of a skin health benefit agent to a treated substrate for transfer to skin” (Kimberly-Clark Worldwide, Inc., priority 2000, dated 2003):
Read-outs that look alike come from different tables or passages of the source.

Experiments:
[1] = system: proteolytic activity of a fecal extract; details: zinc sulfate heptahydrate 0-1 mM; FIG. 7
Description: The supernatant was filtered through 0.22 micron cellulose acetate filters and stored at −80° C. until use.

[2] = system: proteolytic activity of infant urine; details: zinc sulfate heptahydrate 0-50 mM; FIG. 8
Description: The proteolytic activity of infant urine was measured using fluorescently labeled casein.
Two (2) infant urine (100 μL) samples were added to wells of a 96 white plate (Dynex) containing 80 μL of 12.5 μg/ml solution of a fluorescent dye-labeled casein substrate (EnzChek Protease Assay Kit (E-6639)) in 100 mM Tris-HCl, pH 8.0, and allowed to incubate for 60 minutes at 37° C. […] Reaction of the infant urine with the casein substrate cleaved the fluorescent dye from the substrate. RFUs were collected using the Fluoroskan Ascent System with excitation and emission filters of 485 and 538 nm, respectively. Data were collected each minute for 60 minutes at 37° C. and rates (RFU/min) from 30-50 minutes were calculated for each zinc concentration. Using the uninhibited wells as 100% protease activity, percent of urine proteolytic activity remaining was determined for each concentration of zinc inhibitor (Inhibited Rate/Uninhibited rate* 100).

[3] = not given; remark: listed apart in the source
[4] = system: EpiDerm™ 201 synthetic skin (keratinocytes), interleukin-1 alpha release
From the text: The synthetic skin, EpiDerm™ 201 (MatTek Corporation, Ashland, Mass. contains keratinocytes that release interleukin-1 alpha (IL-1 alpha) when subjected to proteases in the fecal extract. When the IL-1 alpha was released, it diffused from the skin into the fluid below the EpiDerm™. Samples of this fluid were taken and analyzed for the presence of the IL-1 alpha. Higher levels of IL-1 alpha was indicative of greater skin irritation.
Prior to application onto the EpiDerm™, the fecal extract (10.4 μL) was pre-incubated for 30 minutes at room temperature with 250 mM zinc sulfate heptahydrate in water (2.6 μL). Water only and fecal extract only samples served as controls. After application of the samples to the EpiDerm™, 25 μL aliquots were removed from the underlying media at 8, 12, and 24 hours to test for the presence of the IL-1 alpha. The aliquots were directly added to a 1.5 mL micro-centrifuge tube containing 225 μL of filtered-sterilized 20 mM tris-HCl, pH 8.0, 1% BSA buffer and stored at −80° C. After all samples were collected, IL-1 alpha levels were quantified using the R&D Systems Interleukin-1 alpha Quantikine Kit (R&D Systems, Minneapolis, Minn.

[5] = 1.0 mM zinc sulfate heptahydrate
[6] = 2.5 mM zinc sulfate heptahydrate
[7] = 5.0 mM zinc sulfate heptahydrate
[8] = 10.0 mM zinc sulfate heptahydrate
[9] = 20.0 mM zinc sulfate heptahydrate
[10] = .1 mM zinc sulfate heptahydrate
[11] = increased concentration of zinc sulfate heptahydrate (Table 1)

With `O.O.O.O.O.O.O.O=S(=O)([O-])[O-].[Zn+2]` [zinc sulfate heptahydrate] the “inhibition of hydrolysis of casein by the fecal extract (percent of fecal proteolytic activity remaining)” value [1] was “effectively inhibited the hydrolysis of casein by the fecal extract in a dose-dependent manner”, the “pH, Infant Urine Example F” value [5] was 8.0 and the “pH, Infant Urine Example G” value [5] was 7.0. The “pH, Infant Urine Example H” value [5] was 7.5, the “pH, Infant Urine Example F” value [6] was 7.5-8.0 and the “pH, Infant Urine Example G” value [6] was 6.5. The “pH, Infant Urine Example H” value [6] was 7.0-7.5, the “pH, Infant Urine Example F” value [7] was 7.5 and the “pH, Infant Urine Example G” value [7] was 5.5. For the same compound, the “pH, Infant Urine Example H” value [7] was 7.0, the “pH, Infant Urine Example F” value [8] was 7.0 and the “pH, Infant Urine Example G” value [8] was 5.0. For the same compound, the “pH, Infant Urine Example H” value [8] was 6.5, the “pH, Infant Urine Example F” value [9] was 7.0 and the “pH, Infant Urine Example G” value [9] was 5.0. The “pH, Infant Urine Example H” value [9] was 6.5, the “pH, Infant Urine Example F” value [10] was 8.5 and the “pH, Infant Urine Example G” value [10] was 7.0. The “pH, Infant Urine Example H” value [10] was 8.0, the “reduction of pH of the infant urine samples” value [11] was 1.5-2.0 pH units and the “inhibition of hydrolysis of casein by infant urine (percent of urine proteolytic activity remaining)” value [2] was “effectively inhibited the hydrolysis of casein by infant urine in a dose-dependent manner”. For the same compound, the “pH, Fecal Extract Example B” value [3, 5] was 6.5, the “pH, Fecal Extract Example B” value [3, 6] was 6.0-6.5 and the “pH, Fecal Extract Example B” value [3, 7] was 6.0. The “pH, Fecal Extract Example B” value [3, 8] was 5.5, the “pH, Fecal Extract Example B” value [3, 9] was 5.5 and the “pH, Fecal Extract Example B” value [3, 10] was 6.5. The “reduction of pH of the fecal extract sample” value [3, 11] was 1 pH unit, the “proteolytic activity of fecal extract on synthetic skin (IL-1 alpha release)” value ([4]; 0, 25, 50, 125 and 250 mM zinc sulfate heptahydrate, FIG. 10) was “effectively inhibits the proteolytic activity of fecal extract in a dose-dependent manner” and the “interleukin-1 alpha released into the underlying media” value ([4]; FE+zinc (250 mM, 2.6 μL) relative to FE+water, 8, 12 and 24 hours, FIG. 9) was “reduced the amount of interleukin-1 alpha released”.
